The values below are quoted from earlier work in patent US6043276A (Georgetown University School of Medicine, priority 1999, dated 2000).

For data set [1] the following is noted: Lin et al. 1996; cited from earlier work.
A further data set has as its system HIV. The following applies: literature; cited from earlier work.
Data set [2] deals with integrase protein of HIV-1. As to conditions: Fesen et al.; Burke et al.; Mazumder et al.; cited from earlier work.
The subject of another data set is RT for HIV. As to conditions: Kreis et al. 1990; cited from earlier work.
Another data set concerns xanthine oxidase. As to conditions: Chan et al. 1995; Chang et al. 1994; cited from earlier work.

Regarding acetylsalvianolic acid, the antioxidant properties entry in data set [1] is listed as “antioxidant properties”.
On to `O=C(/C=C/c1ccc(O)c(O)c1)O[C@H](Cc1ccc(O)c(O)c1)C(=O)O` [Rosemarinic acid], for which the anti-HIV activity entry in the data set on HIV was “possesses anti-HIV activity”.
`O=C(/C=C/c1ccc(O)c(O)c1/C=C/c1ccc(O)c(O)c1)O[C@H](Cc1ccc(O)c(O)c1)C(=O)O` [salvianolic acid A]: the antioxidant properties result in data set [1] was “antioxidant properties”.
Turning to `O=C(/C=C/c1ccc(O)c(O)c1)OCCc1ccccc1` [CAPE, Caffeic acid phenethyl esters], in data set [2], the “inhibitory activity on the integrase protein of HIV-1” value is on record as “exert inhibitory activity”.
Consider `O=C(O)/C=C/c1ccc(O)c(O)c1` [Caffeic acid], for which the “antiviral activity, RT assay for HIV” value with RT for HIV is reported as “has antiviral activity”. Also, the xanthine oxidase inhibition entry in the data set with xanthine oxidase is on record as “inhibit xanthine oxidase”.
